In ChEMBL document CHEMBL1154989, “Towards the second generation of Boceprevir: Dithianes as an alternative P2 substituent for 2,2-dimethyl cycloproyl proline in HCV NS3 protease inhibitors” (Bioorg Med Chem Lett, 2010):
The source made the active and inactive calls. No cut-off for these calls is given here.

Assays:
[1] = Inhibition of HCV NS3/4A serine protease by continuous spectrophotometric assay; parameters: species or system Hepacivirus hominis
[2] = Selectivity for HCV NS3 serine protease over human neutrophil elastase
[3] = AUC in rat at 10 mg/kg, po; type: ADME, organism-based; parameters: dose 10 mg/kg, route oral; details: plasma
Hepatitis C virus = test: Antiviral activity against HCV replicon expressing NS3-5 infected in HuH7 cells assessed as inhibition of viral replication after 3 days by ELISA; type: functional, organism-based, Hepacivirus hominis, Huh-7

Row | Ki [1] [nM] | Ratio [2] | AUC [3] [µM·h] | EC90 (Hepatitis C virus; huh-7) | EC90 (Hepatitis C virus; Hepatitis C virus, Huh-7, 72 h, read-out: EC90) [nM] | SMILES
1 | 13 | 1700 | – | – | – | C=CCNC(=O)C(=O)C(CCC1CC1)NC(=O)[C@@H]1CC2(CN1C(=O)[C@@H](NC(=O)N[C@@H](CN1C(=O)CC(C)(C)CC1=O)C(C)(C)C)C(C)(C)C)SCCS2 (stereo not given in full)
2 | 33 | 40 | 0.77 | – | – | C=CCNC(=O)C(=O)C(CC1CC1)NC(=O)[C@@H]1CC2(CN1C(=O)[C@@H](NC(=O)NC1(CS(=O)(=O)C(C)(C)C)CCCCC1)C(C)(C)C)SCCS2 (stereo not given in full)
3 | 600 | – | – | – | – | CC(C)(C)NC(=O)N[C@H](C(=O)N1CC2(C[C@H]1C(=O)NC(CC1CCC1)C(=O)C(N)=O)SCCS2)C(C)(C)C (stereo not given in full)
4 | 300 | – | – | – | – | CC(C)(C)NC(=O)N[C@H](C(=O)N1CC2(C[C@H]1C(=O)NC(CC1CC1)C(=O)C(N)=O)SCCS2)C(C)(C)C (stereo not given in full)
5 | 7 | 128 | 2.56 | – | – | C=CCNC(=O)C(=O)C(CCC)NC(=O)[C@@H]1CC2(CN1C(=O)[C@@H](NC(=O)NC1(CS(=O)(=O)C(C)(C)C)CCCCC1)C(C)(C)C)SCCCS2 (stereo not given in full)
6 | 72 | 15 | – | – | – | C=CCNC(=O)C(=O)C(CC1CC1)NC(=O)[C@@H]1CC2(CN1C(=O)[C@@H](NC(=O)N[C@@H](C(=O)OC1CC1)C(C)C)C1CCCCC1)SCCS2 (stereo not given in full)
7 | 700 | inactive | – | Not Active | – | C=CCNC(=O)C(=O)C(CC1CC1)NC(=O)[C@@H]1CC2(CN1C(=O)[C@@H](NC(=O)NC(C)(C)C)C(C)(C)C)SCCS2 (stereo not given in full)
8 | 400 | – | – | – | – | CC(C)(C)NC(=O)N[C@H](C(=O)N1CC2(C[C@H]1C(=O)NC(CC1CCC1)C(=O)C(N)=O)SCCS2)C1CCCCC1 (stereo not given in full)
9 | 18 | 200 | 0.2 | – | – | C=CCNC(=O)C(=O)C(CC1CC1)NC(=O)[C@@H]1CC2(CN1C(=O)[C@@H](NC(=O)N[C@@H](CN1C(=O)CC(C)(C)CC1=O)C(C)(C)C)C1(C)CCCCC1)SCCS2 (stereo not given in full)
10 | 21 | 290 | – | – | – | C=CCNC(=O)C(=O)C(CC1CC1)NC(=O)[C@@H]1CC2(CN1C(=O)[C@@H](NC(=O)N[C@@H](CN1C(=O)CC(C)(C)CC1=O)C(C)(C)C)C(C)(C)C)SCCS2 (stereo not given in full)
11 | 14 | – | 0.14 | – | 350 | CC(C)(C)NC(=O)N[C@H](C(=O)N1C[C@H]2[C@@H]([C@H]1C(=O)NC(CC1CCC1)C(=O)C(N)=O)C2(C)C)C(C)(C)C (stereo not given in full) [BOCEPREVIR]
12 | 11 | 50 | 0.57 | – | – | C=CCNC(=O)C(=O)C(CCC)NC(=O)[C@@H]1CC2(CN1C(=O)[C@@H](NC(=O)NC1(CS(=O)(=O)C(C)(C)C)CCCCC1)C(C)(C)C)SCCS2 (stereo not given in full)
13 | 200 | – | – | – | – | CC(C)(C)NC(=O)N[C@H](C(=O)N1CC2(C[C@H]1C(=O)NC(CC1CC1)C(=O)C(N)=O)SCCS2)C1CCCCC1 (stereo not given in full)
14 | 84 | 40 | – | – | – | C=CCNC(=O)C(=O)C(CC1CC1)NC(=O)[C@@H]1CC2(CN1C(=O)[C@@H](NC(=O)N[C@@H](C(=O)OC1CC1)C(C)C)C(C)(C)C)SCCS2 (stereo not given in full)
15 | 6 | 240 | 0.04 | – | – | C=CCNC(=O)C(=O)C(CCC)NC(=O)[C@@H]1CC2(CN1C(=O)[C@@H](NC(=O)N[C@@H](CN1C(=O)CC(C)(C)CC1=O)C(C)(C)C)C1(C)CCCCC1)SCCS2 (stereo not given in full)
16 | 13 | 1500 | 0.2 | – | – | C=CCNC(=O)C(=O)C(CCCC)NC(=O)[C@@H]1CC2(CN1C(=O)[C@@H](NC(=O)N[C@@H](CN1C(=O)CC(C)(C)CC1=O)C(C)(C)C)C(C)(C)C)SCCS2 (stereo not given in full)
17 | 5 | 630 | 0.06 | – | – | C=CCNC(=O)C(=O)C(CCC)NC(=O)[C@@H]1CC2(CN1C(=O)[C@@H](NC(=O)N[C@@H](CN1C(=O)CC(C)(C)CC1=O)C(C)(C)C)C(C)(C)C)SCCS2 (stereo not given in full)
18 | 19 | 10 | 1.34 | – | – | C=CCNC(=O)C(=O)C(CCC)NC(=O)[C@@H]1CC2(CN1C(=O)[C@@H](NC(=O)NC1(CS(=O)(=O)C(C)(C)C)CCCCC1)C1(C)CCCCC1)SCCS2 (stereo not given in full)
19 | 18 | 130 | 1.69 | – | – | C=CCNC(=O)C(=O)C(CC1CC1)NC(=O)[C@@H]1CC2(CN1C(=O)[C@@H](NC(=O)NC1(CS(=O)(=O)C(C)(C)C)CCCCC1)C(C)(C)C)SCCCS2 (stereo not given in full)
